Measured values taken from ChEMBL document CHEMBL6074701, “Pyridazine Compounds as NLRP3 Inhibitors for Treating Parkinson's Disease or Frontotemporal Dementia” (ACS Med Chem Lett, 2024).

Assay: Inhibition of NLRP3 inflammasome activation in human THP-1 cells assessed as reduction in LPS induced IL-1beta level preincubated with LPS for 3 hrs followed by compound addition and measured after 2 hrs in presence of nigericin by HTRF analysis
Format: cell-based

IC50, < 0.3 nM:
CCN1CC[C@H]2CCN(c3ccc(-c4ccc(C(F)(F)F)cc4O)nn3)[C@H]2C1, CN1CC[C@H]2CCN(c3cc(C(F)F)c(-c4ccc(Cl)cc4O)nn3)[C@H]2C1, CCN1CC[C@H]2CCN(c3cc(C)c(-c4ccc(C)cc4O)nn3)[C@H]2C1, CCN1CC[C@@H]2CCN(c3cc(C)c(-c4ccc(C)cc4O)nn3)[C@@H]2C1, CCc1cc(C)cc(O)c1-c1ccc(N2CC[C@@H]3CCN(C)C[C@@H]32)nn1, Cc1cc(N2CCO[C@H]3CCN(C)C[C@H]32)nnc1-c1ccc(C(F)(F)F)cc1O
